According to patent publication US20230330004A1, “COMPOSITION COMPRISING GINSENG EXTRACT FOR REFORMING SKIN MICROBIOTA” (KOREA GINSENG CORP., priority 2020, published 2023):

Columns and labels:
[1] = system: Staphylococcus epidermidis; assay: Growth of beneficial skin microbes, absorbance at 600 nm (Experimental Example 2); format: cell-based; conditions: for Effect of selectively promoting the growth of beneficial microbes rather than harmful microbes (in words): S. epidermidis versus S. aureus, from Table 2; for Effect of promoting the growth of beneficial microbes (in words): S. epidermidis, compared to the composition of the present invention; for OD600 (Beneficial microbes): Staphylococcus epidermidis, incubated 24 hours in shaking incubator, absorbance at 600 nm; for Increase in beneficial microbes versus harmful microbes: ratio of OD600 S. epidermidis / S. aureus, 24 hours
Method: (§1) To compare the compositions of Example and Comparative Examples in terms of the increase in growth of beneficial skin microbes versus harmful skin microbes, the growth of each microbe was measured by the same method as described in Experimental Example 1. Specifically, using Staphylococcus epidermidis as beneficial skin microbes, and Staphylococcus aureus (Strain number 39149, Korean Collection for Type Cultures) as harmful skin microbes, samples were inoculated respectively and incubated for 24 hours in a shaking incubator. Solutions with the strains grown therein were each collected and centrifuged, and after removing the supernatant therefrom, an equivalent amount of a saline solution was added to prepare a bacterial solution.

[2] = system: Staphylococcus aureus (Strain number 39149, Korean Collection for Type Cultures); assay: Growth of harmful skin microbes, absorbance at 600 nm (Experimental Example 2); format: cell-based; conditions: incubated 24 hours in shaking incubator
Method: as §1

Row | Compound | Effect of selectively promoting the growth of beneficial microbes rather than harmful microbes (in words) [1] | Effect of promoting the growth of beneficial microbes (in words) [1] | OD600 (Beneficial microbes) [1] | Increase in beneficial microbes versus harmful microbes [1] | OD600 (Harmful microbes) [2]
1 | 3-Sialyllactose [Comparative Example 2] | low | negligible | 0.049 | ×0.636 | 0.077
2 | CC(=O)N[C@H]1[C@H]([C@H](O)[C@H](O)CO)O[C@@](OC[C@H]2O[C@@H](O[C@H]3[C@H](O)[C@@H](O)C(O)O[C@@H]3CO)[C@H](O)[C@@H](O)[C@H]2O)(C(=O)O)C[C@@H]1O (stereo partly shown) [Comparative Example 3, 6-Sialyllactose] | low | negligible | 0.047 | ×0.723 | 0.065
